Data on 2 compounds can be found in ChEMBL document CHEMBL5338705, “Discovery of 1,3,4-oxadiazole derivatives containing a bisamide moiety as a novel class of potential cardioprotective agents” (Eur J Med Chem, 2022).

In data set [1] the test system is H9c2. The experiment in a line: Antioxidant activity in H2O2-induced oxidative stress in rat H9c2 cells assessed as increase in expression of Nrf2 level at 80 uM measured after 1.5 hrs by Western blotting analysis. It counts as functional, cell-based. On the technique in general: Immunoblotting shows a protein as a band on a membrane.
In data set [2] the test system is H9c2. The experiment in a line: Downregulation of H2O2 induced ANP level in rat H9c2 cells at 80 uM measured after 1.5 hrs by qRT-PCR analysis. The data set is classed as functional, cell-based. For orientation: Quantitative PCR measures a nucleic acid by following its amplification.
Data set [3] deals with H9c2. As to the kind of experiment: Anti-apoptotic activity in H202 induced rat H9c2 cells assessed as increase in Bax level at 80 uM measured after 1.5 hrs by Western blot analysis. It counts as functional, cell-based.
Data set [4] relates to H9c2. As to the kind of experiment: Downregulation of H2O2 induced BNP level in rat H9c2 cells at 80 uM measured after 1.5 hrs by qRT-PCR analysis. It counts as functional, cell-based.
Data set [5] deals with H9c2. As to the kind of experiment: Anti-apoptotic activity in H202 induced rat H9c2 cells assessed as increase in caspase 9 level at 80 uM measured after 1.5 hrs by Western blot analysis. The data set is classed as functional, cell-based.
In data set [6] the test system is H9c2. As to the kind of experiment: Anti-apoptotic activity in H202 induced rat H9c2 cells assessed as decrease in Bcl2 level at 80 uM measured after 1.5 hrs by Western blot analysis. The data set is classed as functional, cell-based.
In data set [7] the test system is H9c2. As to the kind of experiment: Cytoprotective activity against H2O2-induced oxidative damage in rat H9c2 cells assessed as cell viability at 80 uM preincubated for 24 hrs followed by H2O2 treatment for another 1.5 hrs by MTT assay. The data set is classed as functional, cell-based. As to conditions: time 25.5 hrs.
Data set [8] relates to H9c2. The experiment in a line: Cytoprotective activity against H2O2-induced oxidative damage in rat H9c2 cells assessed as fold reduction in cell viability at 20 uM preincubated for 24 hrs followed by H2O2 treatment for another 1.5 hrs by MTT assay. It counts as functional. As to conditions: time 25.5 hrs. For orientation: Tetrazolium dyes change colour on reduction, which living cells bring about.

The test system of data set [9] is H9c2. As to the kind of experiment: Anti-apoptotic activity in H202 induced rat H9c2 cells assessed as increase in caspase 3 level at 80 uM measured after 1.5 hrs by Western blot analysis. The data set is classed as functional, cell-based.
For data set [10], the system named is H9c2. As to the kind of experiment: Antioxidant activity in H2O2-induced oxidative stress in rat H9c2 cells assessed as increase in expression of NQO1 level at 80 uM measured after 1.5 hrs by Western blotting analysis. It counts as functional, cell-based.
Data set [11] relates to H9c2. As to the kind of experiment: Cytoprotective activity against H2O2-induced oxidative damage in rat H9c2 cells assessed as cell viability at 20 uM preincubated for 24 hrs followed by H2O2 treatment for another 1.5 hrs by MTT assay (reference value: 32.52 to 44.40%). The data set is classed as functional. As to conditions: time 25.5 hrs, read-out: Activity.
Data set [12] deals with H9c2. The experiment in a line: Protection against H2O2-induced cell damage in rat H9c2 cells assessed as recovery of cell death at 100 uM. The data set is classed as functional, cell-based.
Data set [13] deals with H9c2. As to the kind of experiment: Protection against H2O2-induced cell damage in rat H9c2 cells assessed as recovery of cell shrinkage at 100 uM. The data set is classed as functional, cell-based.
For data set [14], the system named is H9c2. The experiment in a line: Downregulation of H2O2 induced BNP level in rat H9c2 cells measured after 1.5 hrs by qRT-PCR analysis. The data set is classed as functional, cell-based. As to conditions: dose <= 80.0 µM.
The test system of data set [15] is H9c2. The experiment in a line: Cytoprotective activity against H2O2-induced oxidative damage in rat H9c2 cells assessed as reduction in cell viability at 100 uM incubated for 24 hrs followed by low concentration of H2O2 treatment and measured after 24 hrs by MTT assay relative to control. It counts as functional. As to conditions: time 48 hrs.
Data set [16] deals with H9c2. As to the kind of experiment: Cytotoxicity against rat H9c2 cells at 10 to 100 uM measured after 48 to 72 hrs by MTT assay. It counts as toxicity, cell-based. As to conditions: h9c2, 100 µM, dose lower 10 µM, time lower 48 hrs, dose upper 100 µM, time upper 72 hrs.
The test system of data set [17] is H9c2. As to the kind of experiment: Cytoprotective activity against H2O2-induced oxidative damage in rat H9c2 cells assessed as cell viability preincubated for 24 hrs followed by H2O2 treatment for another 1.5 hrs by MTT assay. It counts as functional, cell-based. The following applies: dose 0-80 µM, time 25.5 hrs.
For data set [18], the system named is H9c2. The experiment in a line: Anti-apoptotic activity in H202 induced rat H9c2 cells assessed as decrease in Bcl2 level at 20 to 80 uM measured after 1.5 hrs by Western blot analysis. The data set is classed as functional, cell-based. The following applies: dose 20-80 µM.
The test system of data set [19] is H9c2. As to the kind of experiment: Antioxidant activity in H2O2-induced oxidative stress in rat H9c2 cells assessed as increase in expression of NQO1 level at upto 80 uM measured after 1.5 hrs by Western blotting analysis. The data set is classed as functional, cell-based.
In data set [20] the test system is H9c2. As to the kind of experiment: Anti-apoptotic activity in H202 induced rat H9c2 cells assessed as increase in caspase 9 level at 20 to 80 uM measured after 1.5 hrs by Western blot analysis. The data set is classed as functional, cell-based. As to conditions: dose 20-80 µM.
The test system of data set [21] is H9c2. The experiment in a line: Downregulation of H2O2 induced ANP level in rat H9c2 cells measured after 1.5 hrs by qRT-PCR analysis. As to conditions: dose <= 80.0 µM. It counts as functional, cell-based.
The subject of data set [22] is H9c2. The experiment in a line: Anti-apoptotic activity in H202 induced rat H9c2 cells assessed as increase in caspase 3 level at 20 to 80 uM measured after 1.5 hrs by Western blot analysis. The data set is classed as functional, cell-based. As to conditions: dose 20-80 µM.
Data set [23] relates to H9c2. The experiment in a line: Anti-apoptotic activity in H202 induced rat H9c2 cells assessed as increase in Bax level at 20 to 80 uM measured after 1.5 hrs by Western blot analysis. It counts as functional, cell-based. As to conditions: dose 20-80 µM.
Data set [24] deals with H9c2. The experiment in a line: Antioxidant activity in H2O2-induced oxidative stress in rat H9c2 cells assessed as increase in expression of Nrf2 level at upto 80 uM measured after 1.5 hrs by Western blotting analysis. It counts as functional, cell-based.

SMILES strings stand for the structures. Activity calls are given as the source filed them. The calls are words filed in the database; no cut-off is given here.

`COc1cccc(NC(=O)NC(=O)CSc2nnc(-c3ccccc3)o2)c1`: the outcome in the data set on H9c2 [1], in the data set with H9c2 [2], in the data set on H9c2 [3], in the data set with H9c2 [4], with H9c2 [5] and in the data set with H9c2 [6] was inactive. The result with H9c2 [7], in the data set with H9c2 [9], with H9c2 [10], with H9c2 [12] and in the data set on H9c2 [13] was inactive. Besides, the “fold change (FC)” value in the data set with H9c2 [8] is listed as 0.69. For the same compound, in the data set with H9c2 [11], the viability at 20 µM was determined as 22.6%.
With `COc1ccc(NC(=O)NC(=O)CSc2nnc(-c3ccccc3)o2)cc1`, the Activity result is “Dose-Dependent Effect” in the data set on H9c2 [14]; 48% in the data set on H9c2 [15]; “Non-Toxic” in the data set with H9c2 [16]; “Dose-Dependent Effect” in the data set with H9c2 [17]; “Dose-Dependent Effect” with H9c2 [21]. The outcome in the data set with H9c2 [18], with H9c2 [19], with H9c2 [20], with H9c2 [22], in the data set on H9c2 [23] and with H9c2 [24] was Active. In addition, the result with H9c2 [12] and in the data set with H9c2 [13] was Active. Further, the “fold change (FC)” value in the data set with H9c2 [8] is on record as 2.69. Also, the viability at 20 µM with H9c2 [11] turned out to be 88.4%.
